Test results as given in patent US11090308B2, “Methods of treating liver disorders or lipid disorders with a THR-beta agonist” (Madrigal Pharmaceuticals, Inc., priority 2016, dated 2021).

What was measured:
Type in all cases: in vitro ADME
CYP2C8 = molecular target: T1, CYP2C8 (Homo sapiens, UniProt P10632); test: In vitro Cytochrome P-450 enzyme assay, CYP2C8; settings: for IC50: read-out: Inhibitor of: CYP2C8, IC50
T1 sequence (P10632 1-490): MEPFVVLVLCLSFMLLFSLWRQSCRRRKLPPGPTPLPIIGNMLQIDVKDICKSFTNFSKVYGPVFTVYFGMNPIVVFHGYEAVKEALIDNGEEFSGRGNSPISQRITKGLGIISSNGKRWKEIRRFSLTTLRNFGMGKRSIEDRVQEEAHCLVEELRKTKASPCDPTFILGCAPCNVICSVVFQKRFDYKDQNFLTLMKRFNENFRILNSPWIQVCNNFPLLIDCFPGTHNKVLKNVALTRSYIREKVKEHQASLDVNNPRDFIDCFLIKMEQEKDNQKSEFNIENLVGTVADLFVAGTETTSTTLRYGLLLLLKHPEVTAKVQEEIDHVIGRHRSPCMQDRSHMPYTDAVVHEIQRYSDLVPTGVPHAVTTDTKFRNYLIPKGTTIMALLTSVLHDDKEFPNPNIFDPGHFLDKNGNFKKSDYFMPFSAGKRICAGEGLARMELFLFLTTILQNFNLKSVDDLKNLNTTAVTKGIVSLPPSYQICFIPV
From the text: (§1) The following studies have been conducted: (a) in vitro drug protein binding, transporter (organic anion transporting polypeptide [OATP], P-glycoprotein [P-gp], breast cancer-related protein [BCRP], and multiple drug resistance protein 1 [MDR1]), and cytochrome P-450 enzyme assays to investigate absorption, distribution, and excretion; (b) in vivo MGL-3196 rat and dog oral PK and bioavailability studies; (c) in vivo ^14C-MGL-3196 rat and dog oral pharmacokinetics, absorption, excretion, and tissue distribution by quantitative whole-body autoradiography (QWBA) studies; and (d) liver disposition of MGL-3196 using an in vitro sandwiched hepatocyte model system (B-CLEAR® technology) in dog (SCDH) and human (SCHH) hepatocytes.

CYP2B6 = molecular target: T2, CYP2B6 (Homo sapiens, UniProt P20813); test: In vitro Cytochrome P-450 enzyme assay, CYP2B6
T2 sequence (P20813 1-491): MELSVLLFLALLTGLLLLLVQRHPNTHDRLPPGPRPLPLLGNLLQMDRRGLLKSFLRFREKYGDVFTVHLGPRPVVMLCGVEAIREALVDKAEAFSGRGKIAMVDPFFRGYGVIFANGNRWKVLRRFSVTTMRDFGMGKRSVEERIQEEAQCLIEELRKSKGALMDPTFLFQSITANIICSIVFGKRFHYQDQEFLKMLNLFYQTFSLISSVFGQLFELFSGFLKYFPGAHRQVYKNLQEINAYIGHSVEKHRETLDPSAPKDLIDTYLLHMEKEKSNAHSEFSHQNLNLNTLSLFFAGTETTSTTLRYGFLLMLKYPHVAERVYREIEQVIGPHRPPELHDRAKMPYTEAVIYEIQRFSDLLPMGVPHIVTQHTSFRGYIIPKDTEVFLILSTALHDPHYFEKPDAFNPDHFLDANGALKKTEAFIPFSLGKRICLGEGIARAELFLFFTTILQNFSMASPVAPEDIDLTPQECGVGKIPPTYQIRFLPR
From the text: as §1

CYP2D6 = CYP2D6 (Homo sapiens, UniProt P10635); test: In vitro Cytochrome P-450 enzyme assay, CYP2D6
From the text: as §1

CYP3A4/5 = test: In vitro Cytochrome P-450 enzyme assay, CYP3A4/5
[1] = test system: sandwich-cultured human hepatocytes (SCHH); test: Hepatobiliary disposition in sandwich-cultured human hepatocytes (SCHH)
Experimental: Qualyst Transporter Solutions evaluated the hepatic uptake of MGL-3196 in sandwich cultured human hypetocytes (SCHH). MGL-3196 was evaluated at 30 μM after a 20-minute incubation (based on a pilot uptake study) in the presence of a physiologic concentration of bovine serum albumin (BSA, ˜4%). The experiment was performed in a 24-well format using 1 lot of Transporter Certified™ human hepatocytes (N=1). Each test condition was performed in 3 wells to provide triplicate data. Sample preparation and LC/MS/MS analysis of cell lysate to determine concentrations of MGL-3196 was performed at QTS according to analytical assay methodology and analytical standards supplied by Madrigal Pharmaceuticals. The following parameter for test article were determined: (a) total accumulation (hepatic uptake), (b) cellular accumulation (intracellular concentration), (c) biliary excretion index (hepatic efflux), (d) Kp value (hepatic accumulation), (e) in vitro biliary clearance (predictive of in vivo biliary clearance), and (f) media accumulation (post incubation supernatant).
Parameters determined: • Bile Accumulation=Total Accumulationplus(+)Buffer−Cellular AccumulationMinus(−)Buffer
[formula] • AUC=(Incubation Time)*(Analyte ConcentrationMedia) • In vitro biliary clearance:
[formula] • (Kp ratio reflects the extent of MGL-3196 accumulation in hepatocyte to the total MGL-3196 concentration in the buffer, outside of the hepatocyte).
MGL-3196 and its metabolite, MGL-3196-M1 (M1), were evaluated in sandwich-cultured human hepatocytes (SCHH) to evaluate the effects of temperature and concentration on total accumulation. Incubations were performed in presence of 4% bovine serum albumin (BSA) for 20 minutes at 37° C. and 4° C. across multiple concentrations (3, 10, 30, and 100 μM). Following the hepatic accumulation study, a species comparison of the hepatobiliary disposition of MGL-3196 (30 μM) and its metabolite, M1, was evaluated in SCHH and sandwich-cultured dog hepatocytes (SCDH) in the presence of 4% BSA.

[2] = 20 min exposure to MGL-3196 30 μM, 4% BSA

Chain of CYP2D6 (P10635 whole entry): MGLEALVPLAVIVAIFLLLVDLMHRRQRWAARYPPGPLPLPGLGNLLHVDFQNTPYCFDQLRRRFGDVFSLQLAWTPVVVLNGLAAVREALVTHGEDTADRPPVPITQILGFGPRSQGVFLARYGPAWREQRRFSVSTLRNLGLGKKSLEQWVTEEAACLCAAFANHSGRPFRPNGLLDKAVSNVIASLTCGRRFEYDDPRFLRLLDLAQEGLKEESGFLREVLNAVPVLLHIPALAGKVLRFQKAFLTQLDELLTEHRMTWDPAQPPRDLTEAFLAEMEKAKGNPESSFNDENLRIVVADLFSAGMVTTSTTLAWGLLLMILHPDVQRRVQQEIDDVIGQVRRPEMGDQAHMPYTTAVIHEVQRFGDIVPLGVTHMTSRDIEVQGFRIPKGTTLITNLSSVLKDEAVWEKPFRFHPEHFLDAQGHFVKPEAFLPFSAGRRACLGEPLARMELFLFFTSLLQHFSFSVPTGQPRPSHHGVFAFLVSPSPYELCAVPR

Row | SMILES | Substrate for: CYP2C8 (CYP2C8) | IC50 (CYP2C8) [µM] | Inhibitor of: CYP2B6 (CYP2B6) | Inhibitor of: CYP2D6 (CYP2D6) | Inhibitor of: CYP3A4/5 (CYP3A4/5) | BEI (Biliary Excretion Index) [1, 2] [%] | Bile Acc. [1, 2] [pmol/mg] | Cellular Acc. [1, 2] [pmol/mg] | ClBiliary (in vitro biliary clearance) [1, 2] [mL/min/kg] | ICC (intracellular concentration) [1, 2] [µM] | Kp [1, 2] [Ratio] | Total Acc. [1, 2] [pmol/mg] | IC50 (CYP2B6; range given jointly for CYP2B6, CYP2C9, CYP2C19, weak, read-out: Inhibitor of: CYP2B6, IC50) [µM] | IC50 (CYP2D6; read-out: Inhibitor of: CYP2D6, IC50) [µM] | IC50 (CYP3A4/5; human, weak, read-out: Inhibitor of: CYP3A4/5, IC50) [µM] | PIS (post incubation supernatant, cell culture media) [1, 2] | accumulation as % of parent's total accumulation ([1]; MGL-3196 30 μM, 20 minutes) [%]
1 | CC(C)c1cc(Oc2c(Cl)cc(-n3nc(C#N)c(=O)[nH]c3=O)cc2Cl)n[nH]c1=O [MGL-3196, 2-(3,5-dichloro-4-((5-isopropyl-6-oxo-1,6-dihydropyridazin-3-yl)oxy)phenyl)-3,5-dioxo-2,3,4,5-tetrahydro-1,2,4-triazine-6-carbonitrile] | CYP2C8; | 0.9 | not an inhibitor | not an inhibitor | not an inhibitor | 33.7 | 293 | 570 | 1.45 | 74.2 | 2.47 | 863 |  |  |  |  | 
2 | CC(CO)c1cc(Oc2c(Cl)cc(-n3nc(C#N)c(=O)[nH]c3=O)cc2Cl)n[nH]c1=O (stereo not drawn) [MGL-3623] | CYP 2C8 | 6.1 |  |  |  | 30.4 | 1.78 | 4.01 |  | 0.521 |  | 5.79 | 24 to 35 | > 50 | 35 | BLQ | 0.67
